Experimental data from ChEMBL document CHEMBL1955722, “1,2,4-Oxadiazoles: a new class of anti-prostate cancer agents” (Bioorg Med Chem Lett, 2012).

Columns and labels:
DU-145 [1] = assay: Cytotoxicity against human androgen-independent DU145 cells by MTT assay; assay type: functional, cell-based
PC-3 [2] = assay: Cytotoxicity against human androgen-independent PC3 cells by MTT assay; assay type: functional, cell-based
LNCaP [3] = assay: Cytotoxicity against human androgen-dependent LNCAP cells by MTT assay; assay type: functional, cell-based
DU-145 [4] = assay: Cytotoxicity against human androgen-independent DU145 cells at 1 uM by MTT assay; assay type: functional
PC-3 [5] = assay: Cytotoxicity against human androgen-independent PC3 cells at 1 uM by MTT assay; assay type: functional
LNCaP [6] = assay: Cytotoxicity against human androgen-dependent LNCAP cells at 1 uM by MTT assay; assay type: functional
MCF-10A = assay: Cytotoxicity against human MCF10A cells at 1 uM by MTT assay; assay type: cell-based
DU-145 [7] = assay: Ratio of doxorubicin IC50 to compound IC50 for human androgen-independent DU145 cells

**Q.** Which results are given for CC(O)(CSc1ccc(Cl)cc1)c1nc(-c2ccc([N+](=O)[O-])c(C(F)(F)F)c2)no1 (centres undefined)?
**A.** IC50 (DU-145 [1]): 1.3 µM; IC50 (PC-3 [2]): 3 µM; IC50 (LNCaP [3]): > 100 µM; Activity (DU-145 [4]): 48.93%; Activity (PC-3 [5]): 39.61%; Activity (LNCaP [6]): 28.93%; Activity (MCF-10A): 10.35%

**Q.** Which IC50 (DU-145 [1]) does the source give for CC(O)(CSc1ccc(Br)cc1)c1nc(-c2ccc([N+](=O)[O-])c(C(F)(F)F)c2)no1 (centres undefined) here?
**A.** 1.6 µM

**Q.** What about the IC50 (PC-3 [2]) of the same molecule?
**A.** 51 µM

**Q.** And the IC50 (LNCaP [3])?
**A.** 40 µM

**Q.** What about the Activity (DU-145 [4]) of the same molecule?
**A.** 48.71%

**Q.** And the Activity (PC-3 [5])?
**A.** 31.77%

**Q.** What about the Activity (LNCaP [6]) of the same molecule?
**A.** 27.45%

**Q.** And the Activity (MCF-10A)?
**A.** 10.55%

**Q.** How did the IC50 (DU-145 [1]) turn out when CC(O)(CSc1ccccc1)c1nc(-c2ccccc2)no1 (centres undefined) was run?
**A.** > 100 µM

**Q.** Which IC50 (DU-145 [1]) does the source give for CC(O)(CSc1ccc(F)cc1)c1nc(-c2ccccc2)no1 (centres undefined) here?
**A.** > 100 µM

**Q.** CC(O)(CSc1ccc(Cl)cc1)c1nc(-c2ccccc2)no1 (centres undefined) was tested. Which IC50 (DU-145 [1]) did it give?
**A.** 70.7 µM

**Q.** CC(O)(CSc1ccc(Br)cc1)c1nc(-c2ccccc2)no1 (centres undefined) was tested. Which IC50 (DU-145 [1]) did it give?
**A.** > 100 µM

**Q.** With CC(O)(CSc1ccccc1)c1nc(-c2ccc(Cl)cc2)no1 (centres undefined) as the molecule, how does the IC50 (DU-145 [1]) read?
**A.** 4.5 µM

**Q.** For CC(O)(CSc1ccc(F)cc1)c1nc(-c2ccc(Cl)cc2)no1 (centres undefined), which IC50 (DU-145 [1]) is on record?
**A.** 36.2 µM

**Q.** CC(O)(CSc1ccc(Cl)cc1)c1nc(-c2ccc(Cl)cc2)no1 (centres undefined) was tested. Which IC50 (DU-145 [1]) did it give?
**A.** 14.5 µM

**Q.** For CC(O)(CSc1ccc(Br)cc1)c1nc(-c2ccc(Cl)cc2)no1 (centres undefined), which IC50 (DU-145 [1]) is on record?
**A.** 6.5 µM

**Q.** How did the IC50 (DU-145 [1]) turn out when CC(O)(CSc1ccccc1)c1nc(-c2ccc(F)c(Cl)c2)no1 (centres undefined) was run?
**A.** 5.5 µM

**Q.** For CC(O)(CSc1ccc(F)cc1)c1nc(-c2ccc(F)c(Cl)c2)no1 (centres undefined), which IC50 (DU-145 [1]) is on record?
**A.** 2.9 µM

**Q.** What about the IC50 (PC-3 [2]) of the same molecule?
**A.** 11.5 µM

**Q.** And the IC50 (LNCaP [3])?
**A.** > 100 µM

**Q.** What about the Activity (DU-145 [4]) of the same molecule?
**A.** 47.84%

**Q.** And the Activity (PC-3 [5])?
**A.** 40.77%

**Q.** And the Activity (LNCaP [6])?
**A.** 32.86%

**Q.** And the Activity (MCF-10A)?
**A.** 12.44%

**Q.** How did the IC50 (DU-145 [1]) turn out when CC(O)(CSc1ccc(Cl)cc1)c1nc(-c2ccc(F)c(Cl)c2)no1 (centres undefined) was run?
**A.** 0.5 µM

**Q.** What about the IC50 (PC-3 [2]) of the same molecule?
**A.** 10 µM

**Q.** What about the IC50 (LNCaP [3]) of the same molecule?
**A.** 26.4 µM

**Q.** What about the Activity (DU-145 [4]) of the same molecule?
**A.** 68.41%

**Q.** What about the Activity (PC-3 [5]) of the same molecule?
**A.** 44.39%

**Q.** And the Activity (LNCaP [6])?
**A.** 33.85%

**Q.** What about the Activity (MCF-10A) of the same molecule?
**A.** 10.62%

**Q.** What about the “Ratio IC50” value (DU-145 [7]) of the same molecule?
**A.** 11.6

**Q.** How did the IC50 (DU-145 [1]) turn out when CC(O)(CSc1ccc(Br)cc1)c1nc(-c2ccc(F)c(Cl)c2)no1 (centres undefined) was run?
**A.** 8.8 µM

**Q.** CC(O)(CSc1ccccc1)c1nc(-c2ccc([N+](=O)[O-])c(C(F)(F)F)c2)no1 (centres undefined) was tested. Which IC50 (DU-145 [1]) did it give?
**A.** 3 µM

**Q.** What about the IC50 (PC-3 [2]) of the same molecule?
**A.** 3.5 µM

**Q.** And the IC50 (LNCaP [3])?
**A.** 9.67 µM

**Q.** And the Activity (DU-145 [4])?
**A.** 49.62%

**Q.** And the Activity (PC-3 [5])?
**A.** 49.02%

**Q.** What about the Activity (LNCaP [6]) of the same molecule?
**A.** 31.1%

**Q.** What about the Activity (MCF-10A) of the same molecule?
**A.** 12.62%

**Q.** What does the source list for CC(O)(CSc1ccc(F)cc1)c1nc(-c2ccc([N+](=O)[O-])c(C(F)(F)F)c2)no1 (centres undefined)?
**A.** IC50 (DU-145 [1]): 5.1 µM; IC50 (PC-3 [2]): 5.5 µM; IC50 (LNCaP [3]): 8.15 µM; Activity (DU-145 [4]): 47.28%; Activity (PC-3 [5]): 46.89%; Activity (LNCaP [6]): 26.88%; Activity (MCF-10A): 11.35%

**Q.** For CC(O)(CS(=O)(=O)c1ccccc1)c1nc(-c2ccccc2)no1 (centres undefined), which IC50 (DU-145 [1]) is on record?
**A.** > 100 µM

**Q.** With CC(O)(CS(=O)(=O)c1ccc(F)cc1)c1nc(-c2ccccc2)no1 (centres undefined) as the molecule, how does the IC50 (DU-145 [1]) read?
**A.** > 100 µM

**Q.** For CC(O)(CS(=O)(=O)c1ccc(Cl)cc1)c1nc(-c2ccccc2)no1 (centres undefined), which IC50 (DU-145 [1]) is on record?
**A.** > 100 µM

**Q.** CC(O)(CS(=O)(=O)c1ccc(Br)cc1)c1nc(-c2ccccc2)no1 (centres undefined) was tested. Which IC50 (DU-145 [1]) did it give?
**A.** > 100 µM

**Q.** With CC(O)(CS(=O)(=O)c1ccccc1)c1nc(-c2ccc(Cl)cc2)no1 (centres undefined) as the molecule, how does the IC50 (DU-145 [1]) read?
**A.** > 100 µM

**Q.** Which IC50 (DU-145 [1]) does the source give for CC(O)(CS(=O)(=O)c1ccc(F)cc1)c1nc(-c2ccc(Cl)cc2)no1 (centres undefined) here?
**A.** > 100 µM

**Q.** With CC(O)(CS(=O)(=O)c1ccc(Cl)cc1)c1nc(-c2ccc(Cl)cc2)no1 (centres undefined) as the molecule, how does the IC50 (DU-145 [1]) read?
**A.** > 100 µM

**Q.** CC(O)(CS(=O)(=O)c1ccc(Br)cc1)c1nc(-c2ccc(Cl)cc2)no1 (centres undefined) was tested. Which IC50 (DU-145 [1]) did it give?
**A.** > 100 µM

**Q.** Which IC50 (DU-145 [1]) does the source give for CC(O)(CS(=O)(=O)c1ccccc1)c1nc(-c2ccc(F)c(Cl)c2)no1 (centres undefined) here?
**A.** > 100 µM

**Q.** CC(O)(CS(=O)(=O)c1ccc(F)cc1)c1nc(-c2ccc(F)c(Cl)c2)no1 (centres undefined) was tested. Which IC50 (DU-145 [1]) did it give?
**A.** > 100 µM

**Q.** How did the IC50 (DU-145 [1]) turn out when CC(O)(CS(=O)(=O)c1ccc(Cl)cc1)c1nc(-c2ccc(F)c(Cl)c2)no1 (centres undefined) was run?
**A.** 35.5 µM

**Q.** How did the IC50 (DU-145 [1]) turn out when CC(O)(CS(=O)(=O)c1ccc(Br)cc1)c1nc(-c2ccc(F)c(Cl)c2)no1 (centres undefined) was run?
**A.** 75 µM

**Q.** Which IC50 (DU-145 [1]) does the source give for CC(O)(CS(=O)(=O)c1ccccc1)c1nc(-c2ccc([N+](=O)[O-])c(C(F)(F)F)c2)no1 (centres undefined) here?
**A.** > 100 µM

**Q.** For CC(O)(CS(=O)(=O)c1ccc(F)cc1)c1nc(-c2ccc([N+](=O)[O-])c(C(F)(F)F)c2)no1 (centres undefined), which IC50 (DU-145 [1]) is on record?
**A.** > 100 µM

**Q.** How did the IC50 (DU-145 [1]) turn out when CC(O)(CS(=O)(=O)c1ccc(Cl)cc1)c1nc(-c2ccc([N+](=O)[O-])c(C(F)(F)F)c2)no1 (centres undefined) was run?
**A.** 91 µM

**Q.** For CC(O)(CS(=O)(=O)c1ccc(Br)cc1)c1nc(-c2ccc([N+](=O)[O-])c(C(F)(F)F)c2)no1 (centres undefined), which IC50 (DU-145 [1]) is on record?
**A.** > 100 µM

**Q.** CC(O)(CS(=O)(=O)c1ccc(F)cc1)C(=O)Nc1ccc(C#N)c(C(F)(F)F)c1 (centres undefined) [BICALUTAMIDE] was tested. Which IC50 (DU-145 [1]) did it give?
**A.** 64 µM

**Q.** What about the IC50 (PC-3 [2]) of the same molecule?
**A.** 77 µM

**Q.** And the IC50 (LNCaP [3])?
**A.** 1.71 µM

**Q.** What does the source list for COc1cccc2c1C(=O)c1c(O)c3c(c(O)c1C2=O)C[C@@](O)(C(=O)CO)C[C@@H]3O[C@H]1C[C@H](N)[C@H](O)[C@H](C)O1 [DOXORUBICIN]?
**A.** IC50 (DU-145 [1]): 5.8 µM; IC50 (PC-3 [2]): 1.05 µM
